pIC50: −log10 of the molar value. Square brackets hold non-standard residues; d marks the D form. Peptide text beside a SMILES is read from it. NMeR = CN[C@@H](CCCNC(=N)N)C(=O)O; 3Amb = NCc1cccc(C(=O)O)c1; dAbu = CC[C@@H](N)C(=O)O
Biological target: Integrin alpha-IIb/beta-3 (Homo sapiens, UniProt P08514+P05106)
Assay: Inhibition of human platelet aggregation mediated by alpha llb/beta3 interaction with fibrinogen

Sequence of Integrin alpha-IIb/beta-3 (P05106 27-788 limits assumed): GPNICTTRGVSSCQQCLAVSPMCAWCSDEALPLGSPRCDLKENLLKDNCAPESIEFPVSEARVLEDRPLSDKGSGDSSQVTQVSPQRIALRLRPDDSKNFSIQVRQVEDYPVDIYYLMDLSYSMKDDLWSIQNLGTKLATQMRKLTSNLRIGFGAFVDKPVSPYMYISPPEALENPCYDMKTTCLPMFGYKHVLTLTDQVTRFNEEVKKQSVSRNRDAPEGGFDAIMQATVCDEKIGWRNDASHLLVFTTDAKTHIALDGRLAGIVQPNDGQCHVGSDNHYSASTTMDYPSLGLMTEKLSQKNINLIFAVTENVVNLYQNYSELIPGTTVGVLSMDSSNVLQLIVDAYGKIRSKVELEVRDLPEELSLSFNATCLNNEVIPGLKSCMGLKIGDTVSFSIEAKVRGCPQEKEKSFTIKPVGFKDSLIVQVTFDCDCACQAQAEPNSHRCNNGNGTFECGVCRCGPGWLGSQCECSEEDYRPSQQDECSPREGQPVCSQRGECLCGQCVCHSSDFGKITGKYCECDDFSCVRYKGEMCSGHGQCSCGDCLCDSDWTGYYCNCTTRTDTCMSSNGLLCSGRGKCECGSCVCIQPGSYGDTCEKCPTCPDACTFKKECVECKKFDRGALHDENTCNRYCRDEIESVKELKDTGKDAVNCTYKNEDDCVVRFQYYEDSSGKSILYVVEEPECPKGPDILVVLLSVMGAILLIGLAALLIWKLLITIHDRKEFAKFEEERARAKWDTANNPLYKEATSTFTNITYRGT
Sequence of Integrin alpha-IIb/beta-3 (P08514 32-887 limits assumed): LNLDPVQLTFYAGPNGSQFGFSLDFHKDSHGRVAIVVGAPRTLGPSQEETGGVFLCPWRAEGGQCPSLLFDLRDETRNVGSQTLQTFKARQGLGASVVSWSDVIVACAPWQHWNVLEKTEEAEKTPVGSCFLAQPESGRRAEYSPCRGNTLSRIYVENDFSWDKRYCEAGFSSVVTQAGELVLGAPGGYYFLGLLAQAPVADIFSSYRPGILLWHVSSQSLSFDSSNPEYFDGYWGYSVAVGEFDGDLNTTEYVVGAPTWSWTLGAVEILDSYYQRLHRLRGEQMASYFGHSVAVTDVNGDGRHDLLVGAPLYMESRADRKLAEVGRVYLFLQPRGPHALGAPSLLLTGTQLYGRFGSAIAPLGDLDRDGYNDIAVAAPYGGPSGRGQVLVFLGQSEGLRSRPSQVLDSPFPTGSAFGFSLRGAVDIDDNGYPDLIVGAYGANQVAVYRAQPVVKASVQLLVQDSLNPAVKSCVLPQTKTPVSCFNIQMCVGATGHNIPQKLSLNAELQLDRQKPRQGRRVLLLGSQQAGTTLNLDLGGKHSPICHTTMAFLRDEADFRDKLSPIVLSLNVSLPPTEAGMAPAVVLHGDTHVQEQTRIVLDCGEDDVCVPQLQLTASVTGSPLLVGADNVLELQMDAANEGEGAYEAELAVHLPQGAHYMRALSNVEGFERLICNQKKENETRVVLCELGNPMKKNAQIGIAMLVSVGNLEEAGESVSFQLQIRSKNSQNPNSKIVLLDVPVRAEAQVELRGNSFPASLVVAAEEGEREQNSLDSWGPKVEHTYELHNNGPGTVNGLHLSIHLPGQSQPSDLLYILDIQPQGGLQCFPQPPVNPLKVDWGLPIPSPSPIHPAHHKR
Sequence of Integrin alpha-IIb/beta-3 (P08514 891-1039 limits assumed): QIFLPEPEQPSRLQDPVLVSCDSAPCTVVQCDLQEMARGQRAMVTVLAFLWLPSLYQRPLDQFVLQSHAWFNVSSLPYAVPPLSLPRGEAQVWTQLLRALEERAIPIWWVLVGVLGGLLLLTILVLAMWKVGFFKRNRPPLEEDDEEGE

| pIC50 | SMILES |
| --- | --- |
| < 4.00 | N=C(N)NCCC[C@H](NC(=O)[C@H](CC(=O)O)NC(=O)CNC(=O)[C@@H](N)CCCNC(=N)N)C(=O)NCC(=O)N[C@@H](CC(=O)O)C(=O)O [(S)-2-[2-((S)-2-{(S)-2-[2-((S)-2-Amino-5-guanidino-pentanoylamino)-acetylamino]-3-carboxy-propionylamino}-5-guanidino-pentanoylamino)-acetylamino]-succinic acid] (H-RGDRGD-OH) |
| < 4.00 | N=C(N)NCCC[C@@H]1NC(=O)[C@H](CC(=O)O)NC(=O)CNC(=O)[C@H](CCCNC(=N)N)NC(=O)[C@H](CC(=O)O)NC(=O)CNC1=O [[(2S,5R,11R,14S)-11-Carboxymethyl-5,14-bis-(3-guanidino-propyl)-3,6,9,12,15,18-hexaoxo-1,4,7,10,13,16hexaaza-cyclooctadec-2-yl]-acetic acid] |
| < 4.00 | N=C(N)NCCC[C@@H]1NC(=O)[C@H](CC(=O)O)NC(=O)CNC(=O)[C@H](CCCNC(=N)N)NC(=O)[C@@H](CC(=O)O)NC(=O)CNC1=O [[(2S,5R,11S,14S)-11-Carboxymethyl-5,14-bis-(3-guanidino-propyl)-3,6,9,12,15,18-hexaoxo-1,4,7,10,13,16hexaaza-cyclooctadec-2-yl]-acetic acid] |
| 7.70 | CC[C@H]1NC(=O)c2cccc(c2)CNC(=O)[C@H](CC(=O)O)NC(=O)CNC(=O)[C@H](CCCN=C(N)N)N(C)C1=O [DMP-728] (cyclo([NMeR]GD[3Amb][dAbu])) |

From BindingDB's records for doi:10.1021/jm960276a (Texas A&M University, 1996)
